From patent publication US10266510B2, “Antimicrobial and cytotoxic compounds and methods for treating cancer, a bacterial infection, and/or a fungal infection” (King Abdulaziz University, priority 2017, dated 2019)

Assays:
Assay in all cases: Well diffusion agar method, inhibition zone
Assay type in all cases: cell-based
[1] = test system: Candida albicans ATCC 10231; details: compound at 50 μg/mL in DMSO, 28° C., 48 h; for zone of inhibition at 50 µg/mL: Candida albicans, ATCC10231
Source text: (§1) The ability to inhibit the growth of Gram-positive and Gram-negative bacteria, yeasts and filamentous fungi was observed using an overlay method (S. R. Connell, D. M. Tracz, K. H. Nierhaus, D. E. Taylor, Antimicrob. Agents Chemother. 47, 3675 (2003), incorporated herein by reference in its entirety).
(§2) The common pathogenic and food spoilage microorganisms were selected for their relevance in bakery products and other food: the gram-positive bacteria: Bacillus subtilits NRRL-B-4219, Staphylococcus aureus ATCC 6538, Enterococcus faecalis ATCC 19433; the gram negative bacteria: Escherichia coli ATCC 25922, Pseudomonas aeruginosa ATCC 9027, Proteus sp.; yeasts, such as Candida albicans ATCC 10231; and fungi: Aspergillus niger NRRL 2766 (equivalent to ATCC 16888), and Aspergillus flavus ATCC 16883. The bacteria were slanted on nutrient agar (Merck, Darmstadt, Germany), yeast was slanted and mentioned on Sabaroud's agar medium (Lab M., Bury, Lancashire, UK) and the fungi was slanted and mentioned on the potato Dextrose Agar medium (Lab M Limited, Bury, Lancashire, UK). Mueller-Hinton agar (Lab M., Bury, Lancashire, UK) following the manufacturer's instructions was used for the assay.
(§3) All compounds were dissolved in dimethyl sulfoxide (RFCL Limited, New Delhi, India) at 50 μg/mL concentration as shown in Table 4 in comparison with different standard antibiotics. Antibiotic discs of Streptomycin (S) (10 μg), Oxytetracycline (T) (30 μg), and Tetracyciline (TE) (30 μg) were used as positive controls for bacteria. Neomycin (N) (30 μg), was used for fungi.
(§4) The antibacterial screening was performed with the well diffusion agar method (S. T. Williams, M. Goodfellow, E. M. H. Wellington, J. C. Vickers, G. Alderson, P. H. A. Sneath, S. M. J. Sackins, A. M. Mortimer, J. Gen. Microbiol. 129, 1815(1983); and B. Bonev, J. Hooper, J. Parisot, J. Antimicrob. Chemother., 61, 1295(2008), each incorporated herein by reference in their entirety). The organisms were streaked in radial patterns on the agar plates. Plates were incubated under aerobic conditions at 37° C. and 28° C. for 24 h and 48 h for bacteria and fungi, respectively. All prepared solutions were treated under the same conditions under the same incubated plates. All tests were performed in triplicate. Plates were examined for evidence of antimicrobial activities, represented by a zone of inhibition of the microorganism's growth around the holes, and diameters of clear zones were expressed in millimeters (R. Cruickshank, J. P. Duguid, B. P. Marmion, R. H. A. Swain, The practice of medicinal microbiology. In Medical Microbiology, 12th ed.; Churchill Livingstone: Edinburgh, UK, Volume 11, pp. 196-202 (1975), incorporated herein by reference in its entirety).

[2] = test system: Bacillus subtilits NRRL-B-4219; details: compound at 50 μg/mL in DMSO, 37° C., 24 h; for zone of inhibition at 50 µg/mL: Bacillus, NRRLB4219
Source text: as §1, §2, §3, §4

[3] = test system: Staphylococcus aureus ATCC 6538; details: compound at 50 μg/mL in DMSO, 37° C., 24 h; for zone of inhibition at 50 µg/mL: Staphylococcus aureus, ATCC6538, read-out: Inhibition zone, S. aureus
Source text: as §1, §2, §3, §4

[4] = test system: Escherichia coli ATCC 25922; details: compound at 50 μg/mL in DMSO, 37° C., 24 h; for zone of inhibition at 50 µg/mL: Escherichia coli, ATCC25922, read-out: Inhibition zone, E. coli
Source text: as §1, §2, §3, §4

[5] = test system: Aspergillus niger NRRL 2766; details: for zone of inhibition at 50 µg/mL / Antifungal effect (in words): Aspergillus niger; for zone of inhibition at 50 µg/mL: NRRL2766; for Antifungal effect (in words): in comparison with Neomycin
Source text: as §1, §2, §3, §4

[6] = test system: Pseudomonas aeruginosa ATCC 9027; details: compound at 50 μg/mL in DMSO, 37° C., 24 h; for zone of inhibition at 50 µg/mL: Pseudomonas aeruginosa, ATCC9027, read-out: Inhibition zone, P. aeruginosa
Source text: as §1, §2, §3, §4

[7] = test system: Proteus sp.; details: compound at 50 μg/mL in DMSO; 37° C., 24 h
Source text: as §1, §2, §3, §4

[8] = test system: Enterococcus faecalis ATCC 19433; details: compound at 50 μg/mL in DMSO, 37° C., 24 h; for zone of inhibition at 50 µg/mL: Enterococcus faecalis, ATCC19433, read-out: Inhibition zone, Ent. faecalis
Source text: as §1, §2, §3, §4

[9] = test system: Aspergillus flavus ATCC 16883; details: for zone of inhibition at 50 µg/mL: Aspergillus flavus, ATCC16883; for Antifungal activity (in words): A. flavus, in comparison with Neomycin
Source text: as §1, §2, §3, §4

[10] = compound at 50 μg/mL in DMSO, 28° C., 48 h

| Molecule | zone of inhibition at 50 µg/mL [1] [mm] | zone of inhibition at 50 µg/mL [2] [mm] | zone of inhibition at 50 µg/mL [3] [mm] | zone of inhibition at 50 µg/mL [4] [mm] | zone of inhibition at 50 µg/mL [5, 10] [mm] | zone of inhibition at 50 µg/mL [6] [mm] | zone of inhibition at 50 µg/mL [7] [mm] | zone of inhibition at 50 µg/mL [8] [mm] | zone of inhibition at 50 µg/mL [9, 10] [mm] | Antifungal effect (in words) [5] | Antifungal activity (in words) [9] | Inhibition zone, C. albicans [1] [mm] | Inhibition zone, B. subtilits [2] [mm] | Inhibition zone, S. aureus [3] [mm] | Inhibition zone, E. coli [4] [mm] | Inhibition zone, A. niger [5, 10] [mm] | Inhibition zone, P. aeruginosa [6] [mm] | Inhibition zone, Proteus sp. [7] [mm] | Inhibition zone, Ent. faecalis [8] [mm] | Inhibition zone, A. flavus [9, 10] [mm] |
| --- | --- | --- | --- | --- | --- | --- | --- | --- | --- | --- | --- | --- | --- | --- | --- | --- | --- | --- | --- | --- |
| CCOC1Oc2ccccc2C(=O)C1=NNc1ccccc1OC (stereo not shown) [Compound 6b, 2-ethoxy-3-(2-(2-methoxyphenyl)hydrazono)chroman-4-one] | 0 | 16 | 13 | 12 | 0 | 0 | 0 | 0 | 0 | – | – | – | – | – | – | – | – | – | – | – |
| CCOC1Oc2ccccc2C(=O)C1=NNc1ccc(Cl)cc1 (stereo not shown) [Compound 6c, 3-[(4-Chlorophenyl)hydrazono]-2-ethoxychroman-4-one] | 20 | 32 | 30 | 30 | 18 | 28 | 26 | 21 | 17 | more potent antifungal effect | moderate activity | – | – | – | – | – | – | – | – | – |
| Ethoxy-3-[(4-nitro-phenyl)-hydrazono]-chroman-one [Compound 6a] | – | – | – | – | – | – | – | – | – | more potent antifungal effect | moderate activity | 24 | 32 | 28 | 33 | 22 | 30 | 27 | 25 | 22 |
